Measurements published in paper PMC4963390, “PL3 Amidase, a Tailor-made Lysin Constructed by Domain Shuﬄing with Potent Killing Activity against Pneumococci and Related Species” (Frontiers in Microbiology, 2016).

Target: T1, PL3
T1 construct: gene pal
Conditions: read-out: apparent half-dissociation constant; 20 mM sodium phosphate, reducing conditions (pH 6.8 in the other assays); 20 °C; higher-affinity sites of a two-sigmoid fit (midpoint value); lower-affinity sites not listed

`C[N+](C)(C)CCO` [choline] showed a Kd of 60 ± 9 µM.
